The values that follow come from paper PMC4948833, “A Sensitive and Robust High-Throughput Screening Assay for Inhibitors of the Chikungunya Virus nsP1 Capping Enzyme” (PLoS ONE, 2016).

pEC50, pKi: −log10 of the molar value.

The subject of assay [1] is CHIKV nsP1 guanylation activity. In words: Guanylation assay, covalent nsP1-GTP-680 formation, SDS-PAGE fluorescence. Particulars: for Average POC: mean of replicates; for Average POC / Percent of Control: 100 μM analog, Fig 4 data; for Percent of Control: single replicates, scaled guanylation; for ability to inhibit nsP1 guanylation (in words): 100 μM of each GTP analog, Fig 4; for ability to inhibit nsP1 guanylation (in words) / effect on nsP1 guanylation activity (in words): 1 hour; for effect on nsP1 guanylation activity (in words): 100 μM GTP, 100 μM SAM or both, Fig 2; for % of control, mean of replicates: mean of n = 3, 100 uM, given as fraction, Fig 2 data.

The subject of the next assay is CHIKV nsP1. In words: HTS validation potency repeatability, EC50 of GTP analogs in two independent FP runs.
For assay [2], the system named is CHIKV nsP1 GTP binding site. Description: FP competition assay, displacement of GTP-Bodipy by GTP and RNA cap analogs (apparent Ki / EC50). The note with it: for affinity for nsP1 GTP binding site / ability to compete with GTP-Bodipy (in words): FP competition, compared with GTP; for pKi: read-out: Average Ki, apparent Ki, 500 nM nsP1, 10 nM GTP-Bodipy, 1 hour 25°C.

Usually pKi stands for the Ki on a negative log10 scale, so that one unit is a factor of ten. On to `Nc1ncnc2c1ncn2[C@@H]1O[C@H](COP(=O)(O)OP(=O)(O)OP(=O)(O)O)[C@@H](O)[C@H]1O` [ATP], for which the “Average POC” value in assay [1] was 73.0319. Further, the “Percent of Control” value is reported as 67.4851 in assay [1] (100 µM); 83.2927 in assay [1] (listed as ATP2, 100 µM); 68.3179 in assay [1] (listed as ATP3, 100 µM). The “Geometric Mean Potency” value in the assay on CHIKV nsP1 (first set of rows) worked out at 4.371; in the assay on CHIKV nsP1 (second set of rows), 4.429. Besides, the “affinity for nsP1 GTP binding site / ability to compete with GTP-Bodipy (in words)” value in assay [2] is “six fold affinity reduction”. In addition, the pKi in assay [2] was 5.48.
As for `Nc1ccn([C@@H]2O[C@H](COP(=O)(O)OP(=O)(O)OP(=O)(O)O)[C@@H](O)[C@H]2O)c(=O)n1` [CTP], in assay [1], the “Average POC” value worked out at 49.6579. In addition, the “Percent of Control” value in assay [1] (100 µM) was 48.7482; in assay [1] (listed as CTP2, 100 µM), 53.2419; in assay [1] (listed as CTP3, 100 µM), 46.9836. Moreover, the “Geometric Mean Potency” value in the assay with CHIKV nsP1 (first set of rows) is reported as 4.146; with CHIKV nsP1 (second set of rows) it was 4.036. In addition, in assay [2], the “affinity for nsP1 GTP binding site / ability to compete with GTP-Bodipy (in words)” value is “markedly decreased ability to outcompete GTP-Bodipy”. In addition, the pKi in assay [2] is 5.16.
On to `Nc1nc2c(ncn2[C@@H]2O[C@H](COP(=O)(O)OP(=O)(O)O)[C@@H](O)[C@H]2O)c(=O)[nH]1` [GDP], for which, in assay [1], the “Average POC” value is reported as 78.8606. In addition, the “Percent of Control” value is recorded as 63.0295 in assay [1] (100 µM); 85.6756 in assay [1] (listed as GDP2, 100 µM); 87.8767 in assay [1] (listed as GDP3, 100 µM). Moreover, the “Geometric Mean Potency” value in the assay with CHIKV nsP1 (first set of rows) is given as 4.329; in the assay with CHIKV nsP1 (second set of rows), 4.21. For the same compound, in assay [2], the “affinity for nsP1 GTP binding site / ability to compete with GTP-Bodipy (in words)” value is given as “slight decrease in affinity”. For the same compound, the negative-log Ki (pKi) in assay [2] was 5.31.
Turning to `Nc1nc2c(ncn2[C@@H]2O[C@H](COP(=O)(O)O)[C@@H](O)[C@H]2O)c(=O)[nH]1` [GMP], the “ability to inhibit nsP1 guanylation (in words)” value in assay [1] was “least ability to inhibit guanylation”. In assay [1], the “Average POC” value is given as 99.8208. In addition, the “Percent of Control” value in assay [1] (100 µM) was determined as 96.3413; in assay [1] (listed as GMP2, 100 µM), 112.788; in assay [1] (listed as GMP3, 100 µM), 90.3332. Moreover, the “Geometric Mean Potency” value with CHIKV nsP1 (first set of rows) and with CHIKV nsP1 (second set of rows) was 3.81 each time. Besides, the “affinity for nsP1 GTP binding site / ability to compete with GTP-Bodipy (in words)” value in assay [2] is recorded as “decrease of GMP affinity was quite large”. Also, in assay [2], the pKi was 3.88.
On to `Nc1nc2c(ncn2[C@@H]2O[C@H](COP(=O)(O)OP(=O)(O)OP(=O)(O)O)[C@@H](O)[C@H]2O)c(=O)[nH]1` [GTP], for which, in assay [1], the “effect on nsP1 guanylation activity (in words)” value is “significantly diminished guanylation activity”; the “ability to inhibit nsP1 guanylation (in words)” value is on record as “greatest ability to in inhibit nsP1 guanylation activity”; the “% of control, mean of replicates” value came to 0.417; the “Average POC” value worked out at 44.8021. Moreover, the “Percent of Control” value in assay [1] (100 µM) is recorded as 42.0576. The “Percent of Control” value in assay [1] (listed as GTP2, 100 µM) was determined as 51.0432. In assay [1] (listed as GTP3, 100 µM), the “Percent of Control” value is given as 41.3055. The “Geometric Mean Potency” value in the assay with CHIKV nsP1 (first set of rows) came out at 5.173. The “Geometric Mean Potency” value with CHIKV nsP1 (second set of rows) is listed as 5.17. Also, in assay [2], the negative-log Ki (pKi) is 6.26. For the same compound, in assay [2] (read-out: EC50 concentration of GTP, FP displacement of GTP-Bodipy, used for midpoint signal wells), the pEC50 is 5.17.
Consider `Nc1nc2c(ncn2[C@@H]2O[C@H](COP(=O)(O)OP(=O)(O)OP(=O)(O)OC[C@H]3O[C@@H](n4cnc5c(N)ncnc54)[C@H](O)[C@@H]3O)[C@@H](O)[C@H]2O)c(=O)[nH]1` [GpppA], for which the “Average POC” value in assay [1] stood at 66.8805. The “Percent of Control” value amounted to 57.9814 in assay [1] (100 µM); 71.1847 in assay [1] (listed as GpppA2, 100 µM); 71.4754 in assay [1] (listed as GpppA3, 100 µM). Besides, the “Geometric Mean Potency” value with CHIKV nsP1 (first set of rows) turned out to be 4.749; in the assay on CHIKV nsP1 (second set of rows) it was 4.683. In addition, the “affinity for nsP1 GTP binding site / ability to compete with GTP-Bodipy (in words)” value in assay [2] is reported as “better competitor than me^7GpppA”. For the same compound, the pKi in assay [2] is 5.72.
On to `Nc1nc2c(ncn2[C@@H]2O[C@H](CO)[C@@H](O)[C@H]2O)c(=O)[nH]1` [Guanosine], for which, in assay [1], the “ability to inhibit nsP1 guanylation (in words)” value was “least ability to inhibit guanylation”. Moreover, the “Average POC” value in assay [1] is 109.076. Further, the “Percent of Control” value in assay [1] (100 µM) came out at 100.679; in assay [1] (listed as Guanosine2, 100 µM) it was 132.685; in assay [1] (listed as Guanosine3, 100 µM) it was 93.8632. Besides, in assay [2], the “affinity for nsP1 GTP binding site / ability to compete with GTP-Bodipy (in words)” value was “not able to calculate a Ki”.
For the compound `O=c1[nH]cnc2c1ncn2[C@@H]1O[C@H](COP(=O)(O)OP(=O)(O)OP(=O)(O)O)[C@@H](O)[C@H]1O` [ITP], the “Average POC” value in assay [1] is recorded as 74.6508. For the same compound, the “Percent of Control” value in assay [1] (100 µM) is 92.365; in assay [1] (listed as ITP2, 100 µM), 66.4533; in assay [1] (listed as ITP3, 100 µM), 65.1342. Further, the results for the “Geometric Mean Potency” value with CHIKV nsP1 (first set of rows) and in the assay on CHIKV nsP1 (second set of rows) were 4.642 and 4.657, respectively. Also, the “affinity for nsP1 GTP binding site / ability to compete with GTP-Bodipy (in words)” value in assay [2] is listed as “moderate decrease in affinity”. Moreover, in assay [2], the pKi was 5.72.
In the case of `C[S+](CC[C@H](N)C(=O)[O-])C[C@H]1O[C@@H](n2cnc3c(N)ncnc32)[C@H](O)[C@@H]1O` (some centres unmarked) [SAM, S-adenosyl methionine], in assay [1], the “effect on nsP1 guanylation activity (in words)” value was “guanylation activity was maintained” and the “% of control, mean of replicates” value is 0.9908.
Consider `O=c1ccn([C@@H]2O[C@H](COP(=O)(O)OP(=O)(O)OP(=O)(O)O)[C@@H](O)[C@H]2O)c(=O)[nH]1` [UTP], for which the “Average POC” value in assay [1] came to 59.4237. The “Percent of Control” value amounted to 68.643 in assay [1] (100 µM); 52.4244 in assay [1] (listed as UTP2, 100 µM); 57.2037 in assay [1] (listed as UTP3, 100 µM). Moreover, the “Geometric Mean Potency” value in the assay with CHIKV nsP1 (first set of rows) was 4.3046; in the assay on CHIKV nsP1 (second set of rows) it was 4.272. Further, in assay [2], the “affinity for nsP1 GTP binding site / ability to compete with GTP-Bodipy (in words)” value was “markedly decreased ability to outcompete GTP-Bodipy”. The pKi in assay [2] was 5.35.
For the compound `Nc1nc2c(ncn2[C@H]2CC[C@@H](COP(=O)(O)OP(=O)(O)OP(=O)(O)O)O2)c(=O)[nH]1` [ddGTP], in assay [1], the “ability to inhibit nsP1 guanylation (in words)” value is “greatest ability to in inhibit nsP1 guanylation activity” and the “Average POC” value is recorded as 32.7576. In assay [1] (100 µM), the “Percent of Control” value is listed as 32.7691. For the same compound, in assay [1] (listed as ddGTP2, 100 µM), the “Percent of Control” value stood at 30.4919. Also, the “Percent of Control” value in assay [1] (listed as ddGTP3, 100 µM) came to 35.0118. In assay [2], the “affinity for nsP1 GTP binding site / ability to compete with GTP-Bodipy (in words)” value is listed as “binding slightly better than the others” and the pKi is 6.37.
`Cn1c[n+]([C@@H]2O[C@H](COP(=O)(O)O)[C@@H](O)[C@H]2O)c2nc(N)[nH]c(=O)c21` [me^7-GMP]: the “ability to inhibit nsP1 guanylation (in words)” value in assay [1] is given as “least ability to inhibit guanylation”. The “Average POC” value in assay [1] turned out to be 102.357. Besides, the “Percent of Control” value in assay [1] (listed as m7-GMP2, 100 µM) was 87.9178; in assay [1] (listed as m7-GMP3, 100 µM) it was 97.473; in assay [1] (listed as m7-GMP, 100 µM) it was 121.679. In assay [2], the “affinity for nsP1 GTP binding site / ability to compete with GTP-Bodipy (in words)” value is “very poor competitor”. The pKi in assay [2] was 4.66.
In the case of `Cn1c[n+]([C@@H]2O[C@H](COP(=O)([O-])OP(=O)(O)OP(=O)(O)O)[C@@H](O)[C@H]2O)c2nc(N)[nH]c(=O)c21` [me^7-GTP], the “Average POC” value in assay [1] was determined as 37.4013. The “Percent of Control” value is given as 37.3024 in assay [1] (listed as m7-GTP2, 100 µM) and 37.5003 in assay [1] (listed as m7-GTP, 100 µM). In assay [2], the “affinity for nsP1 GTP binding site / ability to compete with GTP-Bodipy (in words)” value is “able to compete for the GTP binding site”. Besides, the negative-log Ki (pKi) in assay [2] was 5.81.
